The record followed here is PMC8493801, “Exploring the Monoterpene Indole Alkaloid Scaffold for Reversing P-Glycoprotein-Mediated Multidrug Resistance in Cancer” (Pharmaceuticals, 2021).

In series [1] the test system is mouse embryonic fibroblasts (NIH/3T3). The experiment in a line: MTT antiproliferative assay, non-cancer cells. The note with it: for SI C/B (Selectivity Index): IC50 NIH/3T3 / IC50 MDR; for SI C/A (Selectivity Index): IC50 NIH/3T3 / IC50 PAR; for IC50: NIH3T3, non-cancer mouse embryonic fibroblasts, MTT, read-out: IC50 NIH/3T3 (C). The series is classed as cell-based. The method, then:
(§1) Non-cancer mouse embryonic fibroblasts (NIH/3T3) were also used.
In addition, the antiproliferative activity of the compounds was also evaluated on non-cancerous mouse embryonic fibroblast cells (NIH/3T3), whose values were compared with those of PAR and MDR cells by evaluation of the selective index (SI) values. […] The highest selective index values (SIC/A = 9.39; SIC/B = 10.79) were found for the derivative bearing the trimethoxyphenyl substituent (17).
(§2) L5178Y mouse T-lymphoma cells (ECACC catalog no. 87111908, US FDA, Silver Spring, MD, USA) were transfected with the pHa MDR1/A retrovirus as previously reported. The ABCB1 (P-gp) overexpressing cells were selected by culturing the infected cells with 60 ng/mL of colchicine (Sigma-Aldrich Chemie GmbH, Steinheim, Germany) to preserve the MDR phenotype. L5178Y (parental, PAR) mouse T-cell lymphoma cells and the human ABCB1-transfected subline were cultured in McCoy’s 5A supplemented with 10% heat-inactivated horse serum, 100 U/L L-glutamine, and 100 mg/L penicillin-streptomycin mixture, all obtained from Sigma-Aldrich. The mouse embryonic fibroblast (NIH 3T3) cell line was purchased from ATCC (CRL-1658) and was cultured in DMEM medium supplemented with 10% fetal bovine serum. These adherent cells were detached using 0.25% trypsin and 0.02% EDTA for 5 min at 37 °C. Before the antiproliferative assay using NIH 3T3 cell line, the cells were seeded in untreated 96-well flat bottomed microtiter plates, following a 4 h incubation period in a humidified atmosphere (5% CO2, 95% air) at 37 °C.
(Formazan colour is commonly taken as a measure of viable cells.)

Series [2] deals with sensitive L5178Y mouse T-lymphoma cells (PAR). The experiment in a line: MTT antiproliferative assay, sensitive cells. The series is classed as cell-based. The note with it: 72 h, mean ± SD. The method, then:
as §1, §2
The assay was performed according to the previously applied experimental settings.

Series [3] concerns human ABCB1-transfected L5178Y mouse lymphoma cells. The experiment in a line: Checkerboard combination assay with doxorubicin. The series is classed as cell-based. Also on record: key to CI at ED50 (combination index): CI <1 synergy, =1 additive, >1 antagonism. The conditions noted are these: MDR cells; for CI at ED50 (combination index): best ratio. The protocol:
The in vitro interactions between the compounds and the well-known antitumor drug and P-gp substrate, doxorubicin, were evaluated in a combination chemotherapy model on human ABCB1-transfected mouse T-lymphoma cells. The nature of drug–drug interactions was assessed by determination of the combination index (CI) using the Chou and Talalay method (Figure 1), and therefore evaluated as synergistic (CI < 1), additive (CI = 1), or antagonistic (CI > 1).
Doxorubicin (2 mg/mL, Teva Pharmaceuticals, Budapest, Hungary) was serially diluted horizontally in 100 µL as previously described, starting with 8.6 µM. The resistance modifier was subsequently diluted vertically in 50 µL; the starting concentration was determined based on the IC50. […] The checkerboard plates were kept for 72 h at 37 °C in a CO2 incubator, and at the end of the incubation period, the cell growth was determined by MTT staining method, as described earlier. Drug interactions were evaluated using Calcusyn software. Each dose–response curve (for individual agents as well as combinations) was fit to a linear model using the median effect equation in order to obtain the median effect value (corresponding to the IC50) and slope (m). The goodness-of-fit was assessed using the linear correlation coefficient, r, and only data from analysis with r > 0.90 were presented. The extent of interaction between drugs was expressed using the combination index, in which a CI value close to 1 indicates additivity, while a CI < 1 is defined as synergy and a CI > 1 as antagonism.

The subject of series [4] is human ABCB1-gene transfected L5178Y subline (MDR). The note with it: for RR (relative resistance ratio) = IC50MDR/IC50PAR: RR ≤ 0.5 means CS effect.

Where only a bound is given, the exact number is not on record here.

As to `CCC1CN(C)C2Cc3c([nH]c4ccccc34)C(=NNC(=O)Nc3ccc([N+](=O)[O-])cc3)CC1C2C(=O)OC` (stereo not drawn) [Compound 30, 3-[2″-((4‴-nitrophenyl)carbamoyl)hydrazineylidene]dregamine], in series [1], the “SI C/B (Selectivity Index)” value was found to be 2.90, the “SI C/A (Selectivity Index)” value is 2.32 and the IC50 came out at 14 ± 0.92 µM. The compound further yielded an IC50 in series [2] of 6.04 ± 0.36 µM. Moreover, in series [3], the Interaction result is listed as “Synergism” and the “CI at ED50 (combination index)” value is listed as 0.423. Also, in series [4], the IC50 was found to be 4.83 ± 0.05 µM and the “RR (relative resistance ratio) = IC50MDR/IC50PAR” value was 0.80.
On to `CCC1CN(C)C2Cc3c([nH]c4ccccc34)C(=NNC(=O)Nc3ccc(Cl)cc3)CC1C2C(=O)OC` (stereo not drawn) [Compound 28, 3-[2″-((4‴-chlorophenyl)carbamoyl)hydrazineylidene]dregamine], for which, in series [1], the “SI C/B (Selectivity Index)” value is 2.45, the “SI C/A (Selectivity Index)” value was 2.06 and the IC50 was found to be 12.8 ± 0.95 µM. Further, the IC50 in series [2] was found to be 6.22 ± 0.59 µM. In series [3], the Interaction entry is on record as “Strong Synergism” and the “CI at ED50 (combination index)” value was 0.158. Also, in series [4], the IC50 was 5.21 ± 0.09 µM and the “RR (relative resistance ratio) = IC50MDR/IC50PAR” value came to 0.84.
Consider `CCC1CN(C)C2Cc3c([nH]c4ccccc34)C(=NNC(=O)NC(C)(C)C)CC1C2C(=O)OC` (stereo not drawn) [Compound 23], for which, in series [1], the “SI C/B (Selectivity Index)” value is given as over 8.11, the “SI C/A (Selectivity Index)” value is recorded as over 3.81 and the IC50 is over 100 µM. In series [2], this compound came in with an IC50 of 26.3 ± 0.5 µM. In addition, in series [3], the Interaction result is recorded as “Strong Synergism” and the “CI at ED50 (combination index)” value is 0.163. This compound gave an IC50 in series [4] of 12.3 ± 1.8 µM.
`CCC1CN(C)C2Cc3c([nH]c4ccccc34)C(=NNC(=O)NC3CCCCC3)CC1C2C(=O)OC` (stereo not drawn) [Compound 24]: in series [1], the “SI C/B (Selectivity Index)” value came to 4.68, the “SI C/A (Selectivity Index)” value was determined as 2.07 and the IC50 is 26.6 ± 0.31 µM. This compound gave an IC50 in series [2] of 12.85 ± 0.12 µM. In series [3], the Interaction entry is listed as “Synergism” and the “CI at ED50 (combination index)” value is listed as 0.301. The compound further displayed an IC50 in series [4] of 5.69 ± 0.71 µM.
For the compound `CCC1CN(C)C2Cc3c([nH]c4ccccc34)C(=NN=Cc3ccc(Cl)cc3)CC1C2C(=O)OC` (stereo not drawn) [Compound 9, 3-[(4″-chlorobenzylidene)hydrazineylidene]dregamine], in series [1], the “SI C/B (Selectivity Index)” value turned out to be 1.47, the “SI C/A (Selectivity Index)” value came to 0.67 and the IC50 turned out to be 9.67 ± 0.94 µM. In addition, in series [2], the IC50 is 14.5 ± 0.84 µM. For the same compound, in series [3], the Interaction entry is reported as “Strong Synergism” and the “CI at ED50 (combination index)” value was determined as 0.194. In series [4], this compound had an IC50 of 6.57 ± 0.12 µM.
With `CCC1CN(C)C2Cc3c([nH]c4ccccc34)C(=NN=Cc3ccccc3O)CC1C2C(=O)OC` (stereo not drawn) [Compound 5, 3-[(2″-hydroxybenzylidene)hydrazineylidene]dregamine], in series [1], the “SI C/B (Selectivity Index)” value is reported as 2.12, the “SI C/A (Selectivity Index)” value is reported as 0.86 and the IC50 was 12.7 ± 2.29 µM. The same compound displayed an IC50 in series [2] of 14.8 ± 1.23 µM. Further, in series [3], the Interaction entry was “Strong Synergism” and the “CI at ED50 (combination index)” value was determined as 0.166. The IC50 in series [4] amounted to 5.96 ± 0.26 µM.
With `CCCCCNC(=O)NN=C1CC2C(CC)CN(C)C(Cc3c1[nH]c1ccccc31)C2C(=O)OC` (stereo not drawn) [Compound 22], in series [1], the “SI C/B (Selectivity Index)” value is recorded as 6.24, the “SI C/A (Selectivity Index)” value is 4.92 and the IC50 amounted to 26.7 ± 0.63 µM. Besides, in series [2], the IC50 was 5.43 ± 0.38 µM. In addition, in series [3], the Interaction entry is “Strong Synergism” and the “CI at ED50 (combination index)” value came to 0.219. Further, in series [4], the IC50 was determined as 4.28 ± 0.25 µM and the “RR (relative resistance ratio) = IC50MDR/IC50PAR” value is reported as 0.79.
Regarding `C=CCOc1ccc(C=NN=C2CC3C(CC)CN(C)C(Cc4c2[nH]c2ccccc42)C3C(=O)OC)cc1` (stereo not drawn) [Compound 15, 3-[(4″-(allyloxy)benzylidene)hydrazineylidene]dregamine], in series [1], the “SI C/B (Selectivity Index)” value worked out at 2.32, the “SI C/A (Selectivity Index)” value stood at 1.18 and the IC50 was found to be 14.9 ± 0.72 µM. Besides, the IC50 in series [2] worked out at 12.6 ± 1.06 µM. In addition, in series [3], the Interaction result was “Strong Synergism” and the “CI at ED50 (combination index)” value is reported as 0.177. Moreover, in series [4], the IC50 came out at 6.41 ± 0.33 µM and the “RR (relative resistance ratio) = IC50MDR/IC50PAR” value turned out to be 0.51.
Take `CCC1CN(C)C2Cc3c([nH]c4ccccc34)C(=NN=Cc3c(O)ccc4ccccc34)CC1C2C(=O)OC` (stereo not drawn) [Compound 19, 3-[((2″-hydroxy-1″naphthalenyl)methylene)hydrazineylidene]dregamine]: in series [1], the “SI C/B (Selectivity Index)” value stood at 1.35, the “SI C/A (Selectivity Index)” value turned out to be 1.35 and the IC50 amounted to 17.5 ± 1.03 µM. Also, the IC50 in series [2] turned out to be 12.9 ± 0.35 µM. Further, in series [3], the Interaction result is on record as “Strong Synergism” and the “CI at ED50 (combination index)” value is 0.222. In addition, in series [4], the IC50 stood at 12.9 ± 0.35 µM and the “RR (relative resistance ratio) = IC50MDR/IC50PAR” value came to 1.00.
On to `CCC1CN(C)C2Cc3c([nH]c4ccccc34)C(=NN=Cc3cccc(OC)c3)CC1C2C(=O)OC` (stereo not drawn) [Compound 7, 3-[(3″-methoxybenzylidene)hydrazineylidene]dregamine], for which, in series [1], the “SI C/B (Selectivity Index)” value worked out at 2.61, the “SI C/A (Selectivity Index)” value is reported as 0.92 and the IC50 came to 12.1 ± 1.4 µM. In series [2], the IC50 turned out to be 13.1 ± 0.74 µM. For the same compound, in series [3], the Interaction entry is “Strong Synergism” and the “CI at ED50 (combination index)” value is listed as 0.152. In series [4], this compound registered an IC50 of 4.62 ± 0.14 µM.
Take `CCC1CN(C)C2Cc3c([nH]c4ccccc34)C(=NN=Cc3c[nH]c4cc(Br)ccc34)CC1C2C(=O)OC` (stereo not drawn) [Compound 21, 3-[((6-bromo-1H-indol-3-yl)methylene)hydrazineylidene]dregamine]: in series [1], the “SI C/B (Selectivity Index)” value is 1.14, the “SI C/A (Selectivity Index)” value turned out to be 1.08 and the IC50 was determined as 14.8 ± 2.3 µM. Further, in series [2], the IC50 came to 13.62 ± 0.03 µM. Further, in series [3], the Interaction entry was “Synergism” and the “CI at ED50 (combination index)” value worked out at 0.445. In series [4], the IC50 worked out at 12.9 ± 1.57 µM and the “RR (relative resistance ratio) = IC50MDR/IC50PAR” value was found to be 0.95.
Turning to `CCC1CN(C)C2Cc3c([nH]c4ccccc34)C(=NNC(=O)NCCCc3ccccc3)CC1C2C(=O)OC` (stereo not drawn) [Compound 32, 3-[2″-((3-phenylpropyl)carbamoyl)hydrazineylidene]dregamine], in series [1], the “SI C/B (Selectivity Index)” value came out at 2.13, the “SI C/A (Selectivity Index)” value is listed as 1.39 and the IC50 amounted to 9.51 ± 0.52 µM. In series [2], the IC50 was found to be 6.82 ± 0.64 µM. Further, in series [3], the Interaction entry is on record as “Synergism” and the “CI at ED50 (combination index)” value was 0.384. Also, in series [4], the IC50 is 4.46 ± 1.38 µM and the “RR (relative resistance ratio) = IC50MDR/IC50PAR” value is reported as 0.65.
For `CCC1CN(C)C2Cc3c([nH]c4ccccc34)C(=NNC(=O)Nc3ccccc3)CC1C2C(=O)OC` (stereo not drawn) [Compound 25], in series [1], the “SI C/B (Selectivity Index)” value is reported as 2.56, the “SI C/A (Selectivity Index)” value was determined as 2.13 and the IC50 was determined as 27.6 ± 0.81 µM. In series [2], the IC50 turned out to be 12.95 ± 0.04 µM. Besides, in series [3], the Interaction entry was “Synergism” and the “CI at ED50 (combination index)” value was 0.345. In series [4], the IC50 turned out to be 10.8 ± 0.71 µM and the “RR (relative resistance ratio) = IC50MDR/IC50PAR” value turned out to be 0.83.
